Experimental data from US20250179059A1 (The Regents of the University of California, priority 2021, published 2025).

What was measured:
[1] = target: T1, human BRD4 bromodomain II (Homo sapiens, UniProt O60885); experiment: Bromodomain binding assay (AlphaScreen), BRD4 BDII; settings: AlphaScreen assay, Table C2; read-out: BRD4 BDII IC50
T1 construct: human BRD4 bromodomain II [based on Genbank NM_058243, residues 349-460]; host or cells: E. coli
Outline: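 Compounds (10-point, 3-fold series) were preincubated 30 min at room temperature with E. coli-expressed N-terminal His6-tagged BRD4 BDII (residues 349-460) or BDI (residues 44-170) in 50 mM HEPES pH 7.5, 100 mM NaCl, 0.05% CHAPS, 0.1% BSA, 1% DMSO. Displacement of biotinylated tetra-acetylated H4 1-21 peptide was read by AlphaScreen; IC50 from curve fitting.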

[2] = test system: human SKM-1 acute myeloid leukemia cells; experiment: SKM-1 antiproliferation cell-based assay (ATPlite); settings: Homo sapiens, SKM-1, 96 h, SKM-1 antiproliferation assay, 4 days, Table C2
Outline: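 Log-phase cells in RPMI 1640/15% FBS were seeded at 34722 cells/mL and exposed for 4 days to nine-concentration DMSO serial dilutions in triplicate. Viability was read as ATP luminescence (ATPlite 1step), and IC50 values came from variable-slope non-linear regression.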

IC50 [1] [nM] | GI50 [2] [nM] | Structure (SMILES)
> 100 | 30 to 300 | CSc1cc(-c2cc(F)cc(-c3cnc(SC)c(N4CCN(C(C)C)CC4)c3)c2O)ccc1-n1ccn(C)c1=O [Example 818, 1-(5′-fluoro-2′-hydroxy-3′-(5-(4-isopropylpiperazin-1-yl)-6-(methylthio)pyridin-3-yl)-3-(methylthio)-[1,1′-biphenyl]-4-yl)-3-methyl-1H-imidazol-2(3H)-one]
1 to 10 | 30 to 300 | CC[C@]1(O)CCN(c2cc(-c3cc(F)cc(-c4ccc(-n5ccn(C)c5=O)c(Cl)c4)c3O)ccn2)C1 [Example 819, (S)-1-(3-chloro-3′-(2-(3-ethyl-3-hydroxypyrrolidin-1-yl)pyridin-4-yl)-5′-fluoro-2′-hydroxy-[1,1′-biphenyl]-4-yl)-3-methyl-1H-imidazol-2(3H)-one]
1 to 10 | 0.3 to 30 | CC[C@@]1(O)CCN(c2cc(-c3cc(F)cc(-c4ccc(-n5ccn(C)c5=O)c(Cl)c4)c3O)ccn2)C1 [Example 820, (R)-1-(3-chloro-3′-(2-(3-ethyl-3-hydroxypyrrolidin-1-yl)pyridin-4-yl)-5′-fluoro-2′-hydroxy-[1,1′-biphenyl]-4-yl)-3-methyl-1H-imidazol-2(3H)-one]
1 to 10 | 0.3 to 30 | CSc1ncc(-c2cc(F)cc(-c3ccc(-n4ccn(C)c4=O)c(Cl)c3)c2O)cc1N1CCN(C(C)(C)C)CC1 [Example 821, 1-(3′-(5-(4-(tert-butyl)piperazin-1-yl)-6-(methylthio)pyridin-3-yl)-3-chloro-5′-fluoro-2′-hydroxy-[1,1′-biphenyl]-4-yl)-3-methyl-1H-imidazol-2(3H)-one]
1 to 10 | 0.3 to 30 | Cn1ccn(-c2ccc(-c3cc(F)cc(-c4ccnc(N5CCC(C)(N6CCCC6)C5)c4)c3O)cc2Cl)c1=O (stereo not shown) [Example 822, 1-(3-chloro-5′-fluoro-2′-hydroxy-3′-(2-(3′-methyl-[1,3′-bipyrrolidin]-1′-yl)pyridin-4-yl)-[1,1′-biphenyl]-4-yl)-3-methyl-1H-imidazol-2(3H)-one]
1 to 10 | 0.3 to 30 | Cn1ccn(-c2ccc(-c3cc(F)cc(-c4cnc(OC(F)F)c(N5CCN(C(C)(C)C)CC5)c4)c3O)cc2Cl)c1=O [Example 823, 1-(3′-(5-(4-(tert-butyl)piperazin-1-yl)-6-(difluoromethoxy)pyridin-3-yl)-3-chloro-5′-fluoro-2′-hydroxy-[1,1′-biphenyl]-4-yl)-3-methyl-1H-imidazol-2(3H)-one]
1 to 10 | 0.3 to 30 | CC(C)N1CCN(c2cc(-c3cc(F)cc(-c4ccc(-n5ccn(C)c5=O)c(Cl)c4)c3O)cnc2OC(F)F)CC1 [Example 824, 1-(3-chloro-3′-(6-(difluoromethoxy)-5-(4-isopropylpiperazin-1-yl)pyridin-3-yl)-5′-fluoro-2′-hydroxy-[1,1′-biphenyl]-4-yl)-3-methyl-1H-imidazol-2(3H)-one]
0.01 to 1 | 0.3 to 30 | Cc1ncc(-c2cc(F)cc(-c3ccc(-n4ccn(C)c4=O)c(Cl)c3)c2O)cc1N1CC[C@@](C)(O)C1 [Example 825, (R)-1-(3-chloro-5′-fluoro-2′-hydroxy-3′-(5-(3-hydroxy-3-methylpyrrolidin-1-yl)-6-methylpyridin-3-yl)-[1,1′-biphenyl]-4-yl)-3-methyl-1H-imidazol-2(3H)-one]
0.01 to 1 | 0.3 to 30 | Cn1ccn(-c2ccc(-c3cc(F)cc(-c4cnc(C(F)F)c(N5CCN(C(C)(C)C)CC5)c4)c3O)cc2Cl)c1=O [Example 826, 1-(3′-(5-(4-(tert-butyl)piperazin-1-yl)-6-(difluoromethyl)pyridin-3-yl)-3-chloro-5′-fluoro-2′-hydroxy-[1,1′-biphenyl]-4-yl)-3-methyl-1H-imidazol-2(3H)-one]
0.01 to 1 | 0.3 to 30 | Cn1ccn(-c2ccc(-c3cc(F)cc(-c4cc(Cl)cc(N5CCN(C(C)(C)C)CC5)c4)c3O)cc2Cl)c1=O [Example 827, 1-(3″-(4-(tert-butyl)piperazin-1-yl)-3,5″-dichloro-5′-fluoro-2′-hydroxy-[1,1′:3′,1″-terphenyl]-4-yl)-3-methyl-1H-imidazol-2(3H)-one]
0.01 to 1 | 0.3 to 30 | Cc1cc(-c2cc(F)cc(-c3ccc(-n4ccn(C)c4=O)c(Cl)c3)c2O)cc(N2CCN(C(C)(C)C)CC2)c1 [Example 828, 1-(3″-(4-(tert-butyl)piperazin-1-yl)-3-chloro-5′-fluoro-2′-hydroxy-5″-methyl-[1,1′:3′,1″-terphenyl]-4-yl)-3-methyl-1H-imidazol-2(3H)-one]
0.01 to 1 | 0.3 to 30 | Cc1ncc(-c2cc(F)cc(-c3ccc(-n4ccn(C)c4=O)c(Cl)c3)c2O)cc1N1CC(C)(O)C2(CC2)C1 (stereo not shown) [Example 829, 1-(3-chloro-5′-fluoro-2′-hydroxy-3′-(5-(7-hydroxy-7-methyl-5-azaspiro[2.4]heptan-5-yl)-6-methylpyridin-3-yl)-[1,1′-biphenyl]-4-yl)-3-methyl-1H-imidazol-2(3H)-one]
1 to 10 | 0.3 to 30 | COCC(C)(C)N1CCN(c2cccc(-c3cc(F)cc(-c4ccc(-n5ccn(C)c5=O)c(Cl)c4)c3O)c2)CC1 [Example 830, 1-(3-chloro-5′-fluoro-2′-hydroxy-3″-(4-(1-methoxy-2-methylpropan-2-yl)piperazin-1-yl)-[1,1′:3′,1″-terphenyl]-4-yl)-3-methyl-1H-imidazol-2(3H)-one]
1 to 10 | 0.3 to 30 | CC(C)N1CCN(c2cc(-c3cc(F)cc(-c4ccc(-n5ccn(C)c5=O)c(Cl)c4)c3O)cnc2C(F)F)CC1 [Example 831, 1-(3-chloro-3′-(6-(difluoromethyl)-5-(4-isopropylpiperazin-1-yl)pyridin-3-yl)-5′-fluoro-2′-hydroxy-[1,1′-biphenyl]-4-yl)-3-methyl-1H-imidazol-2(3H)-one]
0.01 to 1 | 0.3 to 30 | Cn1ccn(-c2ccc(-c3cc(F)cc(-c4cnnc(N5CC[C@@](C)(O)C5)c4)c3O)cc2Cl)c1=O [Example 832, (R)-1-(3-chloro-5′-fluoro-2′-hydroxy-3′-(6-(3-hydroxy-3-methylpyrrolidin-1-yl)pyridazin-4-yl)-[1,1′-biphenyl]-4-yl)-3-methyl-1H-imidazol-2(3H)-one]
1 to 10 | 30 to 300 | COc1ncc(-c2cc(F)cc(-c3ccc(-n4ccn(C)c4=O)c(Cl)c3)c2O)cc1N1CC(C)(O)C2(CC2)C1 (stereo not shown) [Example 833, 1-(3-chloro-5′-fluoro-2′-hydroxy-3′-(5-(7-hydroxy-7-methyl-5-azaspiro[2.4]heptan-5-yl)-6-methoxypyridin-3-yl)-[1,1′-biphenyl]-4-yl)-3-methyl-1H-imidazol-2(3H)-one]
1 to 10 | 0.3 to 30 | COc1ncc(-c2cc(F)cc(-c3ccc(-n4ccn(C)c4=O)c(Cl)c3)c2O)cc1N1CC(C)(O)C1 [Example 834, 1-(3-chloro-5′-fluoro-2′-hydroxy-3′-(5-(3-hydroxy-3-methylazetidin-1-yl)-6-methoxypyridin-3-yl)-[1,1′-biphenyl]-4-yl)-3-methyl-1H-imidazol-2(3H)-one]
0.01 to 1 | 30 to 300 | Cn1ccn(-c2ccc(-c3cc(F)cc(-c4cnnc(N5CC[C@](C)(O)C5)c4)c3O)cc2Cl)c1=O [Example 837, (S)-1-(3-chloro-5′-fluoro-2′-hydroxy-3′-(6-(3-hydroxy-3-methylpyrrolidin-1-yl)pyridazin-4-yl)-[1,1′-biphenyl]-4-yl)-3-methyl-1H-imidazol-2(3H)-one]
0.01 to 1 | 30 to 300 | COc1ncc(-c2cc(F)cc(-c3ccc(-n4ccn(C)c4=O)c(Cl)c3)c2O)cc1N1CC(O)(CO)C1 [Example 838, 1-(3-chloro-5′-fluoro-2′-hydroxy-3′-(5-(3-hydroxy-3-(hydroxymethyl)azetidin-1-yl)-6-methoxypyridin-3-yl)-[1,1′-biphenyl]-4-yl)-3-methyl-1H-imidazol-2(3H)-one]
0.01 to 1 | 0.3 to 30 | Cc1ncc(-c2cc(F)cc(-c3ccc(-n4ccn(C)c4=O)c(Cl)c3)c2O)cc1N1CC(O)(CO)C1 [Example 839, 1-(3-chloro-5′-fluoro-2′-hydroxy-3′-(5-(3-hydroxy-3-(hydroxymethyl)azetidin-1-yl)-6-methylpyridin-3-yl)-[1,1′-biphenyl]-4-yl)-3-methyl-1H-imidazol-2(3H)-one]
0.01 to 1 | 0.3 to 30 | Cn1ccn(-c2ccc(-c3cc(F)cc(-c4ccnc(N5CCCN(C(C)(C)C)CC5)c4)c3O)cc2Cl)c1=O [Example 840, 1-(3′-(2-(4-(tert-butyl)-1,4-diazepan-1-yl)pyridin-4-yl)-3-chloro-5′-fluoro-2′-hydroxy-[1,1′-biphenyl]-4-yl)-3-methyl-1H-imidazol-2(3H)-one]

Structure (SMILES) | IC50 [1] [nM] | GI50 [2] [nM]
Cc1ncc(-c2cc(F)cc(-c3ccc(-n4ccn(C)c4=O)c(Cl)c3)c2O)cc1N1CC2CCC(C1)N2C(C)C [Example 835, 1-(3-chloro-5′-fluoro-2′-hydroxy-3′-(5-(8-isopropyl-3,8-diazabicyclo[3.2.1]octan-3-yl)-6-methylpyridin-3-yl)-[1,1′-biphenyl]-4-yl)-3-methyl-1H-imidazol-2(3H)-one] | 1 to 10 | 0.3 to 30
COc1ncc(-c2cc(F)cc(-c3ccc(-n4ccn(C)c4=O)c(Cl)c3)c2O)cc1N1CC2CCC(C1)N2C(C)C [Example 836, 1-(3-chloro-5′-fluoro-2′-hydroxy-3′-(5-(8-isopropyl-3,8-diazabicyclo[3.2.1]octan-3-yl)-6-methoxypyridin-3-yl)-[1,1′-biphenyl]-4-yl)-3-methyl-1H-imidazol-2(3H)-one] | 1 to 10 | 0.3 to 30
